Measurements: patent US6306613A, “Modulators of leaderless protein export and methods for identifying and using the same” (Ciblex Corporation, priority 1999, dated 2001)

Experiments:
[1] = system: export of 18 kD FGF-2 from COS cells; assay: FGF-2 export from transfected COS cells, pulse-chase and immunoprecipitation; type: cell-based; conditions: for inhibition of export of FGF-2 / IC50: COS cells; for inhibition of export of FGF-2: 10 nM to 1 mM in chase; for IC50: FGF-2 export, modulator in chase medium, read-out: concentration that inhibits 50% of leaderless protein export
Protocol: For an immunoprecipitation assay after transfection, the COS cells are metabolically pulse-labeled for 15 minutes with 100 μCi of ^35 S-methionine and ^35 S-cysteine (Trans ^35 S-label, ICN Biomedicals, Irvine, Calif.) in 1 ml of methionine and cysteine free DMEM. Following labeling, the cell monolayers are washed once with DMEM supplemented with excess (10 mM) unlabeled methionine and cysteine for 1-2 minutes. Cells are then cultured in 2 ml of this medium for the indicated lengths of time and the cell supernatants are immunoprecipitated for the presence of leaderless protein. For the indicated cultures, chase medium is supplemented with modulator at the indicated concentrations.
COS cells are cultured in Dulbecco's Modified Eagle Medium (DMEM, University of California San Diego Core Facility) supplemented with 10% fetal bovine serum (Gemini Bioproducts, Inc.), 2 mM L-glutamine, 1 mM sodium pyruvate, 0.1 mM non-essential amino acids, 100 units/ml penicillin, and 100 units/ml streptomycin. An SV-40-based expression vector containing the wild type (human) cDNA encoding multiple FGF-2 isoforms (24, 23, 22 and 18-kD) has been described previously (Florkiewiczand Sommer, supra). Approximately 3×10^5 COS cells in a 60 mm tissue culture dish are transfected with 10 μg of CsCl-purified plasmid DNA mixed with 1.0 ml of transfection buffer (140 mM NaCl, 3 mM KCl, 1 mM CaC'2, 0.5 mM MgCl2, 0.9 mM Na2 HPO4, 25 mM Tris pH 7.4; all from Sigma Chemical Company, Stl. Louis, Mo.). Under these co-transfection conditions using 2 μg of p18dx plus 10 μg pMAMneo, greater than 70% of transfected cells express both proteins, as determined by immunofluorescence microscopy. The ratio of plasmid DNA may be varied with an insignificant change in results. Forty to 48 hours post-DNA transfection COS cells are metabolically pulse-labeled for 15 minutes with 100 μCi of ^35 S-methionine and ^35 S-cysteine (Trans^35 S-label, ICN Biomedicals, Inc.) in 1.0 ml of methionine-and cysteine-free DMEM. After pulse-labeling, the cell monolayers are washed once with DMEM supplemented with excess (10 mM) unlabeled methionine and cysteine (Sigma Chemical Company) and then cultured in 1.0 ml of the same medium (chase) for the indicated lengths of time. Cultures treated with brefeldin A include 15 μg/ml of brefeldin A in the chase medium. Chase medium is also supplemented with 25 μg/ml heparin (Sigma Chemical Company). Although heparin is not necessary to qualitatively detect FGF-2 export, it is necessary in order to quantitatively detect the export of FGF-2 in this assay.
Cell and medium fractions are prepared for immunoprecipitation essentially as described previously (Florkiewicz et al., 1991) except that 400 μl of lysis buffer without NaCl (1% NP-40, 0.5% deoxycholate, 20 mM Tris pH 7.5, 5 mM EDTA, 2 mM EGTA, 0.01 mM phenylinethylsufonyl fluoride, 10 ng/ml aprotiniul, 10 ng/ml leupeptin, and 10 ng/ml pepstatin) is added to the medium fraction clarified by microfuge centrifugation for 15 minutes at 4° C. before adding immune serum. Both cell and medium fractions are incubated with a 1:200 dilution of guinea pig anti-FGF-2 immune serum (prepared in our laboratory) at 21° C. for 40 minutes and then GammaBind G Sepharose® (Pharmacia LKB Biotechnology) is added for an additional 30 minute incubation. […]

[2] = system: secretion of hCG-α from COS cells; assay: hCG-α secretion from transfected COS cells (leader sequence control); type: cell-based
Protocol: An expression vector encoding hCG-cc (Guan et al., J. Biol. Chem. 263:5306-5313, 1988), which has a signal sequence, is used as a control to monitor proteins trafficked through the ER/Golgi.
COS cells are co-transfected as described above with plasmids expressing FGF-2, hCG-α, or neomycin phosphotransferase. Metabolic labeling is performed as described above, except that during the chase period, modulator that inhibits export is added at 10 nM to 1 mM in log increments. At the end of the chase, cells and cell media are harvested and processed for immune precipitations as described above.

[3] = system: FGF-2 export from Na+/K+ ATPase α1 co-transfected COS cells; assay: FGF-2 export from COS cells co-transfected with rat Na+/K+ ATPase α1; type: cell-based; conditions: twenty-four hours post labeling
[4] = system: IL-1α export from COS cells; assay: IL-1α export from transfected COS cells; type: cell-based; conditions: 5 mM
Description: A vector containing a leaderless protein gene. IL-1α, is transfected into COS cells. Cells are metabolically labeled and protein precipitated with anti-IL-1α antibody. […] In contrast to the export of FGF-2, the rate of IL-1 export is slower, having a T1/2 of greater than 24 hrs. […] In addition, IL-1α can be immunoprecipitated from co-transfected COS cells (transfected with IL-1α and the Na/K ATPase α1 subunit) using anti-α1 subunit antibody (FIG. 4).

[5] = system: VSV N protein export from COS cells; type: cell-based
[6] = system: export of FPT (FGF-2 neomycin phosphotransferase chimeric protein) from COS cells; assay: Export of FPT chimera from COS cells; type: cell-based
[7] = system: export of F-gal (FGF-2 β-gal chimeric protein) from COS cells; assay: Export of F-gal chimera from COS cells; type: cell-based
[8] = system: export of FGF-2 mutein Arg118Ile from COS cells; assay: FGF-2 mutein export with ouabain, Arg118Ile; type: cell-based
[9] = system: export of FGF-2 mutein Lys144Val (K144V) from COS cells; assay: FGF-2 mutein export with ouabain, Lys144Val; type: cell-based
[10] = system: export of FGF-2 mutein Arg53Trp (R53W) from COS cells; assay: FGF-2 mutein export with ouabain, Arg53Trp; type: cell-based
[11] = system: export of FGF-2 mutein Lys134Thr (K134T) from COS cells; assay: FGF-2 mutein export with ouabain, Lys134Thr; type: cell-based
[12] = system: export of FGF-2 mutein Cys78Ser + Cys96Ser (C78,96S) from COS cells; assay: FGF-2 mutein export with ouabain, Cys78Ser + Cys96Ser; type: cell-based
[13] = system: export of 18 kD FGF-2 from COS cells; conditions: 25 μg/ml in chase medium; cited from earlier work
[14] = system: secretion of hCG-α from COS cells; conditions: cited from earlier work

## C[C@@H]1O[C@@H](O[C@H]2C[C@@H](O)[C@]3(CO)[C@H]4[C@H](O)C[C@]5(C)[C@@H](C6=CC(=O)OC6)CC[C@]5(O)[C@@H]4CC[C@]3(O)C2)[C@H](O)[C@H](O)[C@H]1O [Ouabain]
[1]; 1 mM, FGF-2 only transfected COS cells
  inhibition of FGF-2 export at 1 mM: completely inhibit
[1]
  inhibition of export of FGF-2: inhibit
  IC50: ~100 nM
[2]
  effect on secretion of hCG-α: does not affect secretion of hCG-α
[3]
  FGF-2 in media at 1 mM: significant amounts of FGF-2 can be detected in media
[4]
  inhibition of IL-1α export: inhibted
[5]
  sensitivity of N protein export: ouabain-resistant
[6]
  inhibition of export of FPT: can be inhibited
[7]
  inhibition of export of F-gal: can be inhibited
[8]
  Effect of Ouabain on Export: decrease
  FGF-2 in Cells, 7 hr (+) Ouabain: 79%
  FGF-2 in Media, 7 hr (+) Ouabain: 21%
[9]; K144V
  FGF-2 in Cells, 7 hr (+) Ouabain: 70%
  FGF-2 in Media, 7 hr (+) Ouabain: 30%
[9]; Lys144Val
  Effect of Ouabain on Export: decrease
[10]; Arg53Trp
  Effect of Ouabain on Export: decrease
[10]; R53W
  FGF-2 in Cells, 7 hr (+) Ouabain: 70%
  FGF-2 in Media, 7 hr (+) Ouabain: 30%
[11]
  FGF-2 in Cells, 7 hr (+) Ouabain: 70%
  FGF-2 in Media, 7 hr (+) Ouabain: 30%
[12]; C78,96S
  FGF-2 in Cells, 7 hr (+) Ouabain: 62%
  FGF-2 in Media, 7 hr (+) Ouabain: 38%
[12]; Cys78Ser + Cys96Ser
  Effect of Ouabain on Export: decrease

## C[C@H]1CCC/C=C/[C@@H]2C[C@H](O)C[C@H]2[C@H](O)/C=C/C(=O)O1 [Brefeldin A]
[13]
  effect on FGF-2 export: no substantial effect
[14]
  sensitivity of hCG-α secretion: brefeldin sensitive

## C[C@H]1O[C@@H](O[C@H]2[C@@H](O)C[C@H](O[C@H]3[C@@H](O)C[C@H](O[C@H]4CC[C@@]5(C)[C@H](CC[C@@H]6[C@@H]5C[C@@H](O)[C@]5(C)[C@@H](C7=CC(=O)OC7)CC[C@]65O)C4)O[C@@H]3C)O[C@@H]2C)C[C@H](O)[C@@H]1O [digoxin]
[1]
  inhibition of export of FGF-2: inhibit
  IC50: ~5000 nM
